Data on two substances can be found in patent US5256559A, “Methods and compositions for inhibiting platelet aggregation” (Biogen, Inc., priority 1991, dated 1993).

One test addresses thrombin (Homo sapiens, UniProt P00734). The note with it: cited from earlier work.
Another test concerns plasma. Nature of the test: activated partial thromboplastin time (APTT) of plasma from patients recovered from heparin-induced thrombocytopenia. Details: species or system human. The note with it: concentrations used in the platelet studies, FIGS. 12A and 12B.

pKd: −log10 of the molar value. Like-named read-outs stand apart in the source and are kept apart here.

Description for plasma: We isolated whole blood from patients who had recovered from heparin-induced thrombocytopenia. We then centrifuged the blood at 4° C. for 15 minutes at 2,000× g in a Sorval rotor to obtain plasma. […] We measured APTT semi-automatically using a Coagamate XC (General Diagnostics Organon Teknika).

For Hirudin, the pKd at thrombin (overall tight binding, read-out: Kd, binding to thrombin in a 1:1 stoichiometric complex) was around 10.70; at thrombin (site separate from the catalytic site, read-out: Kd, "low" affinity site on the thrombin molecule) it was around 8.00.
For heparin, the “prolongation of APTT” value in the test on plasma is listed as “sufficient to prolong APTT into the desired therapeutic range”.
